Laboratory results reported in patent US8518931B2, “Compounds and compositions as kinase inhibitors” (IRM LLC, priority 2008, dated 2013).

Target: T1, NPM-ALK (Homo sapiens, UniProt Q9UM73)
T1 construct: nucleophosmin (NPM, NPM1; human P06748) fusion partner; expressed in transfected cells; host or cells: murine BaF3 cells (DSMZ), transfected with pCIneo (Promega) coding for NPM-ALK and selected with G418; the other entry of the earlier key: Npm1 (Q61937, Nucleophosmin)
Assay: NPM-ALK BaF3 assay (growth inhibition of BaF3-NPM-ALK cells)
Format: cell-based
Conditions: human NPM-ALK overexpressing murine BaF3 cells
Excerpt: The expression of NPM-ALK may be achieved by transfecting the BaF3 cell line with an expression vector pClneo™ (Promega Corp., Madison Wis., USA) coding for NPM-ALK and subsequent selection of G418 resistant cells. Non-transfected BaF3 cells depend on IL-3 for cell survival. In contrast, NPM-ALK expressing BaF3 cells (named BaF3-NPM-ALK hereinafter) can proliferate in the absence of IL-3 because they obtain proliferative signal through NPM-ALK kinase. Putative inhibitors of the NPM-ALK kinase therefore abolish the growth signal and may result in antiproliferative activity. The antiproliferative activity of putative inhibitors of the NPM-ALK kinase can however be overcome by addition of IL-3, which provides growth signals through an NPM-ALK independent mechanism. An analogous cell system using FLT3 kinase has also been described (see, E Weisberg et al. Cancer Cell; 1, 433-443 (2002)).
The inhibitory activity of the compounds of the invention may be determined as follows. In general, BaF3-NPM-ALK cells (15,000/microtitre plate well) are transferred to 96-well microtitre plates. Test compounds dissolved in dimethyl sulfoxide (DMSO) are added in a series of concentrations (dilution series) in such a manner that the final concentration of DMSO is not greater than 1% (v/v). After the addition, the plates are incubated for two days during which the control cultures without test compound are able to undergo two cell-division cycles. The growth of the BaF3-NPM-ALK cells is measured by means of YOPRO™ staining [T Idziorek et al. J. Immunol. Methods; 185: 249-258 (1995)]: 25 μl of lysis buffer comprising 20 mM sodium citrate, pH 4.0, 26.8 mM sodium chloride, 0.4% NP40, 20 mM EDTA and […] to each well. Cell lysis is completed within 60 min at room temperature and total amount of YOPRO™ bound to DNA is determined by measurement using the Cytofluor II 96-well reader (PerSeptive Biosystems) with the following settings: Excitation (nm) 485/20 and Emission (nm) 530/25.
IC50 values may be determined by a computer-aided system using the formula: IC50=[(ABStest−ABSstart)/(ABScontrol−ABSstart)]×100·(ABS=absorption)
In general, compounds of the invention have IC50 values from 1 nM to 10 μM. In some examples, compounds of the invention have IC50 values from 0.01 μM to 5 μM. In other examples, compounds of the invention have IC50 values from 0.01 μM to 1 μM, or more particularly from 1 nM to 1 μM.
Table 1 describes representative compounds of the invention, prepared following the procedures described above. IC50 values are as measured in an NPM-ALK BaF3 assay.

T1 sequence (Q9UM73 with tags, fused parts or gaps): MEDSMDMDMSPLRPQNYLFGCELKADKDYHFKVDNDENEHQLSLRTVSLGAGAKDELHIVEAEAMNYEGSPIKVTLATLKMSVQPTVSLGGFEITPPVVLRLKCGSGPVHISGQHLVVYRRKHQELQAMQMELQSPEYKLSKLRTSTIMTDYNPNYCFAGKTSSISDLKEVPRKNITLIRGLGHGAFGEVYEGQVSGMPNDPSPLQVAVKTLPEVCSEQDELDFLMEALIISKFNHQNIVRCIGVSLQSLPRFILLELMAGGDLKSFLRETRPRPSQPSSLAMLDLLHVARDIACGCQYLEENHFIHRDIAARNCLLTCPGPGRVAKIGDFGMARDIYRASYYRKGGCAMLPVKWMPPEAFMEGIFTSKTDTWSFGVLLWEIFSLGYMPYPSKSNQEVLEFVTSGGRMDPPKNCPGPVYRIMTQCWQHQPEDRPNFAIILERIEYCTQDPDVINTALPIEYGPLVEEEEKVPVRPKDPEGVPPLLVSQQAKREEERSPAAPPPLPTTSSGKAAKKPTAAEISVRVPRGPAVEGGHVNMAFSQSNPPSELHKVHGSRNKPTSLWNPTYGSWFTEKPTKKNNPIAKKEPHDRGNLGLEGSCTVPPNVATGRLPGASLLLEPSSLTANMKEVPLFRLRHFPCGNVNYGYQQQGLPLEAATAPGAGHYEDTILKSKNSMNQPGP

SMILES	IC50 [nM]
COc1cc(C2CCN(C(=O)[C@H]3C[C@@H](O)CN3)CC2)c(C)cc1Nc1nc(Nc2ccccc2S(=O)(=O)C(C)C)n2nccc2n1 [Ex 56]	79
COCCNCC(=O)N1CCC(c2cc(OC)c(Nc3nc(Nc4ccccc4S(=O)(=O)C(C)C)n4nccc4n3)cc2C)CC1 [Ex 74]	28
CCNCC(=O)N1CCC(c2cc(OC)c(Nc3nc(Nc4ccccc4S(=O)(=O)C(C)C)n4nccc4n3)cc2C)CC1 [Ex 105]	15
COc1cc(C2CCN(C(=O)[C@@H]3COCCN3)CC2)c(C)cc1Nc1nc(Nc2ccccc2S(=O)(=O)C(C)C)n2nccc2n1 [Ex 71]	22
COc1cc(C2CCN(C(=O)[C@H](C)N(C)C)CC2)c(C)cc1Nc1nc(Nc2ccccc2S(=O)(=O)C(C)C)n2nccc2n1 [Ex 66]	32
CN[C@H](C)C(=O)N1CCC(c2cc(OC)c(Nc3nc(Nc4ccccc4S(=O)(=O)C(C)C)n4nccc4n3)cc2C)CC1 [Ex 44]	18
COc1cc(C2CCN(C(=O)[C@@H]3C[C@H](O)CN3)CC2)c(C)cc1Nc1nc(Nc2ccccc2S(=O)(=O)C(C)C)n2nccc2n1 [Ex 55]	63
COc1cc(C2CCN(C(=O)CNC(C)C)CC2)c(C)cc1Nc1nc(Nc2ccccc2S(=O)(=O)C(C)C)n2nccc2n1 [Ex 57]	32
COc1cc(C2CCN(C(=O)[C@@H]3COC(C)(C)CN3)CC2)c(C)cc1Nc1nc(Nc2ccccc2S(=O)(=O)C(C)C)n2nccc2n1 [Ex 87]	29
COc1cc(C2CCN(C(=O)[C@H]3COC(C)(C)CN3)CC2)c(C)cc1Nc1nc(Nc2ccccc2S(=O)(=O)C(C)C)n2nccc2n1 [Ex 85]	34
COc1cc(C2CCN(C(=O)[C@H](C)N3CCCC3)CC2)c(C)cc1Nc1nc(Nc2ccccc2S(=O)(=O)C(C)C)n2nccc2n1 [Ex 80]	33
COc1cc(C2CCN(C(=O)[C@@H](N)CO)CC2)c(C)cc1Nc1nc(Nc2ccccc2S(=O)(=O)C(C)C)n2nccc2n1 [Ex 69]	59
CNC(C)(C)C(=O)N1CCC(c2cc(OC)c(Nc3nc(Nc4ccccc4S(=O)(=O)C(C)C)n4nccc4n3)cc2C)CC1 [Ex 27]	44
CC(C)S(=O)(=O)c1ccccc1Nc1nc(Nc2ccc3c(c2)CNCC3)nc2ccnn12 [Ex 42]	1020
COc1cc(C2CCN(C(=O)C(C)(CO)CO)CC2)c(C)cc1Nc1nc(Nc2ccccc2S(=O)(=O)C(C)C)n2nccc2n1 [Ex 106]	16
Cc1cc(Nc2nc(Nc3ccccc3S(=O)(=O)C(C)C)n3nccc3n2)ccc1C1CCN(CCS(C)(=O)=O)CC1 [Ex 47]	46
COc1cc(C2CCN(C(=O)CO)CC2)c(C)cc1Nc1nc(Nc2ccccc2S(=O)(=O)C(C)C)n2nccc2n1 [Ex 73]	40
COc1cc(C2CCN(C(=O)CNC(C)(C)C)CC2)c(C)cc1Nc1nc(Nc2ccccc2S(=O)(=O)C(C)C)n2nccc2n1 [Ex 63]	53
CC(C)S(=O)(=O)c1ccccc1Nc1nc(Nc2ccc3c(c2)CCN(CCS(C)(=O)=O)C3)nc2ccnn12 [Ex 40]	136
Cc1cc(Nc2nc(Nc3ccccc3S(=O)(=O)C(C)C)n3nccc3n2)c(OC(C)C)cc1C1CCN(C)CC1 [Ex 1, N2-(2-isopropoxy-5-methyl-4-(1-methylpiperidin-4-yl)phenyl)-N4-(2-(isopropylsulfonyl)phenyl)pyrazolo[1,5-a][1,3,5]triazine-2,4-diamine]	115
